Consider two molecules from ChEMBL document CHEMBL4184127, “Isolation of a peptide containing d-amino acid residues that inhibits the α-helix-mediated p53-MDM2 interaction from a one-bead one-compound library” (Bioorg Med Chem Lett, 2018).

Series [1] in a line: Metabolic stability in human serum assessed as compound remaining at 3 mM after 72 hrs by HPLC analysis. The class given is ADME, cell-free. Particulars: read-out: Stability.
Series [2] in a line: Metabolic stability in human serum assessed as compound remaining at 3 mM after 24 hrs by HPLC analysis. The class given is ADME, cell-free. Particulars: read-out: Stability.

`CC(C)C[C@@H](NC(=O)[C@@H](CC(=O)O)NC(=O)[C@@H](CCC(=O)O)NC(=O)[C@H](NC(=O)[C@@H](CC(C)C)NC(=O)[C@@H](CCC(=O)O)NC(=O)C(C)(C)NC(=O)[C@@H](Cc1c[nH]c2ccccc12)NC(=O)[C@H](NC(=O)[C@H](N)CC(=O)O)[C@@H](C)O)C(C)C)C(=O)N[C@H](CC(N)=O)C(=O)NCC(=O)NCC(=O)NCC(=O)N[C@@H](CO)C(=O)N[C@@H](Cc1ccc(Br)cc1)C(=O)N[C@@H](CCCNC(=N)N)C(N)=O`: the remaining at 72 h, 3000 µM in series [1] turned out to be 36%. Besides, the remaining at 24 h, 3000 µM in series [2] came out at 62%.

As to `CC(C)C[C@H](NC(=O)[C@H](CC(=O)O)NC(=O)[C@H](CCC(=O)O)NC(=O)[C@@H](NC(=O)[C@H](CC(C)C)NC(=O)[C@H](CCC(=O)O)NC(=O)C(C)(C)NC(=O)[C@H](Cc1c[nH]c2ccccc12)NC(=O)[C@@H](NC(=O)[C@@H](N)CC(=O)O)[C@@H](C)O)C(C)C)C(=O)N[C@@H](CC(N)=O)C(=O)NCC(=O)NCC(=O)NCC(=O)N[C@@H](CO)C(=O)N[C@@H](Cc1ccc(Br)cc1)C(=O)N[C@@H](CCCNC(=N)N)C(N)=O`, in series [2], the remaining at 24 h, 3000 µM amounted to 24%.
